# Results published in US20250026724A1, “(1,4,5-TRISUBSTITUTED 1H-PYRAZOL-3-YL)OXY-2-ALKYLTHIOALKYL ACIDS AND -ALKYL ACID DERIVATIVES, SALTS THEREOF AND USE THEREOF AS ACTIVE HERBICIDAL INGREDIENTS” (BAYER AKTIENGESELLSCHAFT, priority 2021, published 2025).
# Tested on: Bassia scoparia (KCHSC)
# Assay: Post-emergence herbicidal action, greenhouse pot trial
# Assay type: in vivo
# Settings: 320 g/ha
# Method: (§1) Seeds of monocotyledonous and dicotyledonous weeds and crop plants are placed in sandy loam in plastic or organic planting pots, covered with soil and cultivated in a greenhouse under controlled growth conditions. 2 to 3 weeks after sowing, the trial plants are treated at the one-leaf stage. The compounds of the invention, formulated in the form of wettable powders (WP) or as emulsion concentrates (EC), are then sprayed onto the green parts of the plants as aqueous suspension or emulsion with addition of 0.5% additive at a water application rate equivalent to 600 l/ha. After about 3 weeks of keeping the trial plants in the greenhouse under optimum growth conditions, the effect of the preparations is rated visually in comparison to untreated controls. For example, 100% activity=the plants have died, 0% activity=like control plants.
# (§2) Tables B1 to B14 below show the effects of selected compounds of the general formula (I) according to Table 1 on various harmful plants and at an application rate corresponding to 320 g/ha or lower, which were obtained by the trial procedure specified above. The appendices “a”, “b” and “c” give differentiation by dosage used with otherwise the same harmful plants tested.
# (§3) As shown by results from Tables B1 to B19, inventive compounds of the general formula (I) in the case of post-emergence treatment have good herbicidal efficacy against harmful plants, for example Abutilon theophrasti (ABUTH), Alopecurus myosuroides (ALOMY), Amaranthus retroflexus (AMARE), Avena fatua (AVEFA), Digitaria sanguinalis (DIGSA), Echinochloa crus-galli (ECHCG), Bassia scoparia (KCHSC), Lolium rigidum (LOLRI), Matricaria inodora (MATIN), Pharbitis purpurea (PHBPU), Polygonum convolvulus (POLCO), Setaria viridis (SETVI), Veronica persica (VERPE) and Viola tricolor (VIOTR) at an application rate of 320 g of active substance or less per hectare, and good crop plant compatibility in the case of organisms such as Oryza sativa (ORYSA), Zea mays (ZEAMX), Brassica napus (BRSNW), Glycine max (GLXMA) and Triticum aestivum (TRZAS) at an application rate of 320 g or less per hectare.
row,Structure (SMILES),Post-emergence effect against KCHSC
1,"COC(=O)C(Oc1nn(-c2ncccc2F)c(-c2ccc(F)nc2)c1Br)SC (single isomer, unassigned) [Example I-26]",80%

# Tested on: Alopecurus myosuroides (ALOMY)
# Assay: as above
# Assay type: in vivo
# Settings: 80 g/ha, visual rating after about 3 weeks
# Method: as §1, §2, §3
row,Structure (SMILES),Post-emergence effect at 80 g/ha against ALOMY in %
1,"COC(=O)C(Oc1nn(-c2ncccc2F)c(-c2ccc(F)nc2)c1Br)SC (single isomer, unassigned) [Example I-26]",80%

# Same assay, conditions: Alopecurus myosuroides, 504 h, 320 g/ha, visual rating after about 3 weeks, read-out: Post-emergence effect at 320 g/ha against ALOMY in %
row,Structure (SMILES),pest or weed control at 320 g/ha
1,"COC(=O)C(Oc1nn(-c2ncccc2F)c(-c2ccc(F)nc2)c1Br)SC (single isomer, unassigned) [Example I-26]",90%

# Tested on: Matricaria inodora (MATIN)
# Assay: as above
# Assay type: in vivo
# Settings: Tripleurospermum inodorum, 504 h, 80 g/ha, visual rating after about 3 weeks, read-out: Post-emergence effect at 80 g/ha against MATIN in %
# Method: as §1, §2, §3
row,Structure (SMILES),pest or weed control at 80 g/ha
1,"COC(=O)C(Oc1nn(-c2ncccc2F)c(-c2ccc(F)nc2)c1Br)SC (single isomer, unassigned) [Example I-26]",90%

# Same assay, conditions: Tripleurospermum inodorum, 504 h, 320 g/ha, visual rating after about 3 weeks, read-out: Post-emergence effect at 320 g/ha against MATIN in %
row,Structure (SMILES),pest or weed control at 320 g/ha
1,"COC(=O)C(Oc1nn(-c2ncccc2F)c(-c2ccc(F)nc2)c1Br)SC (single isomer, unassigned) [Example I-26]",90%

# Tested on: Setaria viridis (SETVI)
# Assay: as above
# Assay type: in vivo
# Settings: Setaria viridis, 504 h, 320 g/ha, visual rating after about 3 weeks, read-out: Post-emergence effect at 320 g/ha against SETVI in %
# Method: as §1, §2, §3
row,Structure (SMILES),pest or weed control at 320 g/ha
1,"COC(=O)C(Oc1nn(-c2ncccc2F)c(-c2ccc(F)nc2)c1Br)SC (single isomer, unassigned) [Example I-26]",80%

# Tested on: Avena fatua (AVEFA)
# Assay: as above
# Assay type: in vivo
# Settings: 80 g/ha, visual rating after about 3 weeks
# Method: as §1, §2, §3
row,Structure (SMILES),Post-emergence effect at 80 g/ha against AVEFA in %
1,"COC(=O)C(Oc1nn(-c2ncccc2F)c(-c2ccc(F)nc2)c1Br)SC (single isomer, unassigned) [Example I-26]",80%

# Same assay, conditions: Avena fatua, 504 h, 320 g/ha, visual rating after about 3 weeks, read-out: Post-emergence effect at 320 g/ha against AVEFA in %
row,Structure (SMILES),pest or weed control at 320 g/ha
1,"COC(=O)C(Oc1nn(-c2ncccc2F)c(-c2ccc(F)nc2)c1Br)SC (single isomer, unassigned) [Example I-26]",90%

# Tested on: Viola tricolor (VIOTR)
# Assay: as above
# Assay type: in vivo
# Settings: Viola tricolor, 504 h, 80 g/ha, read-out: Post-emergence effect against VIOTR
# Method: as §1, §2, §3
row,Structure (SMILES),pest or weed control at 80 g/ha
1,"COC(=O)C(Oc1nn(-c2ncccc2F)c(-c2ccc(F)nc2)c1Br)SC (single isomer, unassigned) [Example I-26]",90%

# Same assay, conditions: Viola tricolor, 504 h, 320 g/ha, read-out: Post-emergence effect against VIOTR
row,Structure (SMILES),pest or weed control at 320 g/ha
1,"COC(=O)C(Oc1nn(-c2ncccc2F)c(-c2ccc(F)nc2)c1Br)SC (single isomer, unassigned) [Example I-26]",90%

# Tested on: Lolium rigidum (LOLRI)
# Assay: as above
# Assay type: in vivo
# Settings: Lolium rigidum, 504 h, 320 g/ha, visual rating after about 3 weeks, read-out: Post-emergence effect at 320 g/ha against LOLRI in %
# Method: as §1, §2, §3
row,Structure (SMILES),pest or weed control at 320 g/ha
1,"COC(=O)C(Oc1nn(-c2ncccc2F)c(-c2ccc(F)nc2)c1Br)SC (single isomer, unassigned) [Example I-26]",90%

# Tested on: Digitaria sanguinalis (DIGSA)
# Assay: as above
# Assay type: in vivo
# Settings: 80 g/ha, visual rating after about 3 weeks
# Method: as §1, §2, §3
row,Structure (SMILES),Post-emergence effect at 80 g/ha against DIGSA in %
1,"COC(=O)C(Oc1nn(-c2ncccc2F)c(-c2ccc(F)nc2)c1Br)SC (single isomer, unassigned) [Example I-26]",90%

# Same assay, conditions: Digitaria sanguinalis, 504 h, 320 g/ha, visual rating after about 3 weeks, read-out: Post-emergence effect at 320 g/ha against DIGSA in %
row,Structure (SMILES),pest or weed control at 320 g/ha
1,"COC(=O)C(Oc1nn(-c2ncccc2F)c(-c2ccc(F)nc2)c1Br)SC (single isomer, unassigned) [Example I-26]",90%

# Tested on: Polygonum convolvulus (POLCO)
# Assay: as above
# Assay type: in vivo
# Settings: 20 g/ha, visual rating after about 3 weeks
# Method: as §1, §2, §3
row,Structure (SMILES),Post-emergence effect at 20 g/ha against POLCO in %
1,"COC(=O)C(Oc1nn(-c2ncccc2F)c(-c2ccc(F)nc2)c1Br)SC (single isomer, unassigned) [Example I-26]",80%

# Same assay, conditions: Fallopia convolvulus, 504 h, 80 g/ha, visual rating after about 3 weeks, read-out: Post-emergence effect at 80 g/ha against POLCO in %
row,Structure (SMILES),pest or weed control at 80 g/ha
1,"COC(=O)C(Oc1nn(-c2ncccc2F)c(-c2ccc(F)nc2)c1Br)SC (single isomer, unassigned) [Example I-26]",80%

# Same assay, conditions: Fallopia convolvulus, 504 h, 320 g/ha, visual rating after about 3 weeks, read-out: Post-emergence effect at 320 g/ha against POLCO in %
row,Structure (SMILES),pest or weed control at 320 g/ha
1,"COC(=O)C(Oc1nn(-c2ncccc2F)c(-c2ccc(F)nc2)c1Br)SC (single isomer, unassigned) [Example I-26]",90%

# Tested on: Amaranthus retroflexus (AMARE)
# Assay: as above
# Assay type: in vivo
# Settings: Amaranthus retroflexus, 504 h, 80 g/ha, visual rating after about 3 weeks, read-out: Post-emergence effect at 80 g/ha against AMARE in %
# Method: as §1, §2, §3
row,Structure (SMILES),pest or weed control at 80 g/ha
1,"COC(=O)C(Oc1nn(-c2ncccc2F)c(-c2ccc(F)nc2)c1Br)SC (single isomer, unassigned) [Example I-26]",80%

# Same assay, conditions: Amaranthus retroflexus, 504 h, 320 g/ha, visual rating after about 3 weeks, read-out: Post-emergence effect at 320 g/ha against AMARE in %
row,Structure (SMILES),pest or weed control at 320 g/ha
1,"COC(=O)C(Oc1nn(-c2ncccc2F)c(-c2ccc(F)nc2)c1Br)SC (single isomer, unassigned) [Example I-26]",90%

# Tested on: Echinochloa crus-galli (ECHCG)
# Assay: as above
# Assay type: in vivo
# Settings: Echinochloa crus-galli, 504 h, 80 g/ha, visual rating after about 3 weeks, read-out: Post-emergence effect at 80 g/ha against ECHCG in %
# Method: as §1, §2, §3
row,Structure (SMILES),pest or weed control at 80 g/ha
1,"COC(=O)C(Oc1nn(-c2ncccc2F)c(-c2ccc(F)nc2)c1Br)SC (single isomer, unassigned) [Example I-26]",90%

# Same assay, conditions: Echinochloa crus-galli, 504 h, 320 g/ha, visual rating after about 3 weeks, read-out: Post-emergence effect at 320 g/ha against ECHCG in %
row,Structure (SMILES),pest or weed control at 320 g/ha
1,"COC(=O)C(Oc1nn(-c2ncccc2F)c(-c2ccc(F)nc2)c1Br)SC (single isomer, unassigned) [Example I-26]",90%

# Tested on: Abutilon theophrasti (ABUTH)
# Assay: as above
# Assay type: in vivo
# Settings: Abutilon theophrasti, 504 h, 80 g/ha, visual rating after about 3 weeks, read-out: Post-emergence effect at 80 g/ha against ABUTH in %
# Method: as §1, §2, §3
row,Structure (SMILES),pest or weed control at 80 g/ha
1,"COC(=O)C(Oc1nn(-c2ncccc2F)c(-c2ccc(F)nc2)c1Br)SC (single isomer, unassigned) [Example I-26]",80%

# Same assay, conditions: Abutilon theophrasti, 504 h, 320 g/ha, visual rating after about 3 weeks, read-out: Post-emergence effect at 320 g/ha against ABUTH in %
row,Structure (SMILES),pest or weed control at 320 g/ha
1,"COC(=O)C(Oc1nn(-c2ncccc2F)c(-c2ccc(F)nc2)c1Br)SC (single isomer, unassigned) [Example I-26]",80%

# Tested on: Pharbitis purpurea (PHBPU)
# Assay: as above
# Assay type: in vivo
# Settings: 20 g/ha, visual rating after about 3 weeks
# Method: as §1, §2, §3
row,Structure (SMILES),Post-emergence effect at 20 g/ha against PHBPU in %
1,"COC(=O)C(Oc1nn(-c2ncccc2F)c(-c2ccc(F)nc2)c1Br)SC (single isomer, unassigned) [Example I-26]",80%

# Same assay, conditions: Ipomoea purpurea, 504 h, 80 g/ha, visual rating after about 3 weeks, read-out: Post-emergence effect at 80 g/ha against PHBPU in %
row,Structure (SMILES),pest or weed control at 80 g/ha
1,"COC(=O)C(Oc1nn(-c2ncccc2F)c(-c2ccc(F)nc2)c1Br)SC (single isomer, unassigned) [Example I-26]",80%

# Same assay, conditions: Ipomoea purpurea, 504 h, 320 g/ha, visual rating after about 3 weeks, read-out: Post-emergence effect at 320 g/ha against PHBPU in %
row,Structure (SMILES),pest or weed control at 320 g/ha
1,"COC(=O)C(Oc1nn(-c2ncccc2F)c(-c2ccc(F)nc2)c1Br)SC (single isomer, unassigned) [Example I-26]",90%
